Results as given in ChEMBL document CHEMBL5584317, “Acroamine A, a 2-Amino Adenine Alkaloid from the Marine Soft Coral Acrozoanthus australiae and Its Semisynthetic Derivatives That Inhibit cAMP-Dependent Protein Kinase A Catalytic Subunit Alpha” (J Nat Prod, 2024).
Active and inactive are the calls of the source. The calls are words filed in the database; no cut-off is given here.

Key:
Homo sapiens [1] = organism: Homo sapiens; assay: Inhibition of DNAJB1-[…] gene fusion of J-PKAc alpha chimeric protein (unknown origin) up to 200 uM using CREB KRREILSRRPSYR-biotinylated peptide as substrate incubated for 45 mins in presence of ATP by ELISA
[2] = biological target: T1, cAMP-dependent protein kinase catalytic subunit alpha (Homo sapiens, UniProt P17612); assay: Inhibition of PKAcalpha (unknown origin) up to 200 uM using CREB KRREILSRRPSYR-biotinylated peptide as substrate incubated for 45 mins in presence of ATP by ELISA
[3] = Inhibition of DNAJB1-[…] gene fusion of J-PKAc alpha chimeric protein (unknown origin) using CREB KRREILSRRPSYR-biotinylated peptide as substrate incubated for 45 mins in presence of ATP by ELISA; parameters: species or system Homo sapiens
[4] = biological target: T1, cAMP-dependent protein kinase catalytic subunit alpha; assay: Inhibition of PKAcalpha (unknown origin) using CREB KRREILSRRPSYR-biotinylated peptide as substrate incubated for 45 mins in presence of ATP by ELISA
Homo sapiens [5] = organism: Homo sapiens; assay: Potency index, ratio of IC50 for acroamine A to IC50 for test compound for inhibition of DNAJB1-[…] gene fusion of J-PKAc alpha chimeric protein (unknown origin) using CREB KRREILSRRPSYR-biotinylated peptide as substrate incubated for 45 mins in presence of ATP by ELISA
[6] = biological target: T1, cAMP-dependent protein kinase catalytic subunit alpha; assay: Potency index, ratio of IC50 for acroamine A to IC50 for test compound for inhibition PKAcalpha (unknown origin) using CREB KRREILSRRPSYR-biotinylated peptide as substrate incubated for 45 mins in presence of ATP by ELISA
Homo sapiens [7] = organism: Homo sapiens; assay: Inhibition of DNAJB1-[…] gene fusion of J-PKAc alpha chimeric protein (unknown origin) at 2 uM using CREB KRREILSRRPSYR-biotinylated peptide as substrate incubated for 45 mins in presence of 25 to 250 uM ATP by ELISA
Homo sapiens [8] = organism: Homo sapiens; assay: Inhibition of DNAJB1-[…] gene fusion of J-PKAc alpha chimeric protein (unknown origin) at 10 uM using CREB KRREILSRRPSYR-biotinylated peptide as substrate incubated for 45 mins in presence of 25 to 250 uM ATP by ELISA

Structure (SMILES) | inhibition (Homo sapiens [1]) | inhibition [2] | IC50 [3] [µM] | IC50 [4] [µM] | also measured
C/N=c1\nc(NCCc2cn(C)c[n+]2C)c2c(ncn2C)n1C | inactive | inactive | – | – | –
C/N=c1\nc(N(C)CCc2cn(C)c[n+]2C)c2c(ncn2C)n1C | inactive | inactive | – | – | –
Cn1cc(CCNc2n/c(=N\C=[N+](C)C)n(C)c3ncn(C)c23)[n+](C)c1 | inactive | inactive | – | – | –
Cn1cc(CCNc2nc(=N)n(C)c3ncn(C)c23)[n+](C)c1 | inactive | inactive | – | – | –

Now from value to compound, other results behind:

inhibition (Homo sapiens [1]) | inhibition [2] | IC50 [3] [µM] | IC50 [4] [µM] | Structure (SMILES) | also measured
– | – | 47 | 29 | Nc1nc(NCCc2c[nH]cn2)c2nc[nH]c2n1 | –
– | – | 2.5 | 2.4 | Nc1nc(NCCc2nc(Br)[nH]c2Br)c2nc(Br)[nH]c2n1 | Ratio IC50 (Homo sapiens [5]): 19; Ratio IC50 [6]: 19; inhibition (Homo sapiens [7]): inactive
– | – | 8.9 | 5.7 | Nc1nc(NCCc2nc(Br)[nH]c2Br)c2nc[nH]c2n1 | inhibition (Homo sapiens [8]): inactive
inactive | inactive | – | – | CN(C)c1nc(NCCc2cn(C)c[n+]2C)c2c(n1)[n+](C)cn2C | –
– | – | 11.5 | 11.6 | Nc1nc(NCCc2nc[nH]c2Br)c2nc[nH]c2n1 | inhibition (Homo sapiens [8]): inactive
